According to patent US12559504B2, “Benzotriazole derivative” (UBE CORPORATION, priority 2019, dated 2026):

What was measured:
[1] = Metabolism test using human liver microsome fractions; format: in vitro ADME; conditions: human liver microsomes, test compound 10 μmol/L, NADPH and UDP-glucuronic acid, 37° C.
How it was run: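 Compound depletion at 10 μmol/L final, 37 °C, followed by UV-HPLC of acetonitrile-quenched aliquots taken 0, 5, 10, 15, 20, 30 min; incubations contained microsomes (1 mg protein, human or monkey) with NADPH and UDPGA cofactors. Rate = slope over linear range.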

[2] = tested on: NQO1; assay: NQO1 enzyme induction test (in vitro) in Hepa1c1c7 cells; format: cell-based; conditions: Mus musculus, Hepa-1c1c7, 48 h, concentration to elevate the NQO1 activity by 1.5 times, about 48 hours, read-out: EC150
How it was run: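 Mouse Hepa1c1c7 cells treated about 48 h with compound (0.1% DMSO final), then lysed. NQO1 activity read as MTT reduction at 540 nm with menadione substrate, 5 min at room temperature, and corrected for cell number by CellTiter-Glo. EC150 is the concentration raising NQO1 activity 1.5-fold.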

[3] = tested on: NQO1; assay: NQO1 expression induction test in mouse kidney (single administration); format: in vivo; conditions: Mus musculus, po, 6 h, Dose 30 mg/kg, BALB/c mouse kidney, 6 hours after administration, ratio to control group
How it was run: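 Female BALB/c mice received a single oral dose of compound in 0.5% methylcellulose, with untreated mice as controls. Six hours later, left-kidney NQO1 mRNA was measured by SYBR real-time RT-PCR normalised to GAPDH. Induction was expressed as the ratio of mean treated to mean control expression.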

[4] = target: T1, GST fusion human Keap1 (amino acid residue: 325-624) protein (Homo sapiens, UniProt Q14145); assay: Keap1-Nrf2 binding inhibition test (fluorescence polarization); conditions: compound concentration of 100 nM; read-out: inhibition rate
T1 construct: GST fusion human Keap1 (amino acid residue: 325-624) protein; purchased Protein tech Ag0779
How it was run: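 Fluorescence polarization with FITC-labelled Nrf2 peptide (FITC-Ahx-LDEETGEFL-NH2) and GST-human Keap1 (325-624) in 20 mM Tris pH 7.5, 150 mM NaCl, 0.05% Tween 20, 5 mM DTT, BSA; 30 min at room temperature, ex 482/em 530 nm. Percent inhibition at 100 nM compound, Keap1-free wells = 100%.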

T1 sequence (Q14145 325-624): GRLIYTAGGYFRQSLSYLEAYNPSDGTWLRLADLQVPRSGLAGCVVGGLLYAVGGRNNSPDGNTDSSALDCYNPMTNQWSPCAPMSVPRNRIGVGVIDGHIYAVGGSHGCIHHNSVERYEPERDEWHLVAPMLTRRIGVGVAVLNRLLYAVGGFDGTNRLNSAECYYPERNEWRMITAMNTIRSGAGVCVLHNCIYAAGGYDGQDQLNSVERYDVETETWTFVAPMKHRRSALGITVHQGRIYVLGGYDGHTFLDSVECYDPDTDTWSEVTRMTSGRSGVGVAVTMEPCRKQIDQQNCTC

| SMILES | inhibition at 0.1 µM [4] | Human metabolic rate [1] | EC (1.5-fold NQO1 activity) [2] | fold induction at 30 mg/kg [3] |
| --- | --- | --- | --- | --- |
| CC[C@@H]1CN(Cc2cc(C(c3ccc4c(nnn4C)c3C)C(C)(C)C(=O)O)ccc2C)Cc2ccc3c(c2O1)CCC3 (stereo partly drawn) [Example 6-(b), 3-(1,4-dimethyl-1H-benzo[d][1,2,3]triazol-5-yl)-3-(3-(((R)-2-ethyl-2,3,5,8,9,10-hexahydro-4H-indeno[5,4-f][1,4]oxazepin-4-yl)methyl)-4-methylphenyl)-2,2-dimethylpropanoic Acid] | ≥ 50% | B (100≤metabolic rate<150 pmol/min/mg protein) | 0.005 to 0.05 µM | 3 to 6 |
| CC[C@@H]1CN(Cc2cc(C(c3ccc4c(nnn4C)c3C)C(C)(C)C(=O)O)ccc2C)Cc2ccc3c(c2O1)CCCC3 (stereo partly drawn) [Example 7-(b), 3-(1,4-dimethyl-1H-benzo[d][1,2,3]triazol-5-yl)-3-(3-(((R)-2-ethyl-2,3,8,9,10,11-hexahydronaphtho[2,1-f][1,4]oxazepin-4(5H)-yl)methyl)-4-methylphenyl)-2,2-dimethylpropanoic Acid] | ≥ 50% | B (100≤metabolic rate<150 pmol/min/mg protein) | 0.005 to 0.05 µM | 3 to 6 |
| CC[C@@H]1CN(Cc2cc(C(c3ccc4c(nnn4C)c3C)C(C)(C)C(=O)O)ccc2C)Cc2cc3ccccc3cc2O1 (stereo partly drawn) [Example 8-(b), 3-(1,4-dimethyl-1H-benzo[d][1,2,3]triazol-5-yl)-3-(3-(((R)-2-ethyl-2,3-dihydronaphtho[2,3-f][1,4]oxazepin-4(5H)-yl)methyl)-4-methylphenyl)-2,2-dimethylpropanoic Acid] | ≥ 50% | A (metabolic rate<100 pmol/min/mg protein) | 0.0005 to 0.005 µM | 3 to 6 |
| CC[C@@H]1CN(Cc2cc(C(c3ccc4c(nnn4C)c3C)C(C)(C)C(=O)O)ccc2C)Cc2cc3ccccc3nc2O1 (stereo partly drawn) [Example 9-(b), 3-(1,4-dimethyl-1H-benzo[d][1,2,3]triazol-5-yl)-3-(3-(((R)-2-ethyl-2,3-dihydro-[1,4]oxazepino[7,6-b]quinolin-4 (5H)-yl)methyl)-4-methylphenyl)-2,2-dimethylpropanoic Acid] | ≥ 50% | D (200≤metabolic rate<250 pmol/min/me protein) | 0.0005 to 0.005 µM | 3 to 6 |
| CC[C@@H]1CN(Cc2cc(C(c3ccc4c(nnn4C)c3C)C(C)(C)C(=O)O)ccc2C)Cc2nc3ccccc3cc2O1 (stereo partly drawn) [Example 10-(b), 3-(1,4-dimethyl-1H-benzo[d][1,2,3]triazol-5-yl)-3-(3-(((R)-2-ethyl-2,3-dihydro-[1,4]oxazepino[6,7-b]quinolin-4 (5H)-yl)methyl)-4-methylphenyl)-2,2-dimethylpropanoic Acid] | ≥ 50% | C (150≤metabolic rate<200 pmol/min/mg protein) | 0.0005 to 0.005 µM | > 6 |
| CC[C@@H]1CN(Cc2cc(C(c3ccc4c(nnn4C)c3C)C(C)(C)C(=O)O)ccc2C)Cc2cc3cccnc3cc2O1 (stereo partly drawn) [Example 11-(b), 3-(1,4-dimethyl-1H-benzo[d][1,2,3]triazol-5-yl)-3-(3-(((R)-2-ethyl-2,3-dihydro-[1,4]oxazepino[6,7-g]quinolin-4(5H)-yl)methyl)-4-methylphenyl)-2,2-dimethylpropanoic Acid] | ≥ 50% | D (200≤metabolic rate<250 pmol/min/me protein) | 0.0005 to 0.005 µM | > 6 |
| CC[C@@H]1CN(Cc2cc(C(c3ccc4c(nnn4C)c3C)C(C)(C)C(=O)O)ccc2C)Cc2cc3ncccc3cc2O1 (stereo partly drawn) [Example 12-(b), 3-(1,4-dimethyl-1H-benzo[d][1,2,3]triazol-5-yl)-3-(3-(((R)-2-ethyl-2,3-dihydro-[1,4]oxazepino[7,6-g]quinolin-4 (5H)-yl)methyl)-4-methylphenyl)-2,2-dimethylpropanoic Acid] | ≥ 50% | D (200≤metabolic rate<250 pmol/min/me protein) | 0.0005 to 0.005 µM | > 6 |
| CC[C@@H]1CN(Cc2cc(C(c3ccc4c(nnn4C)c3C)C(C)(C)C(=O)O)ccc2C)Cc2cc3cccc(C)c3nc2O1 (stereo partly drawn) [Example 13-(b), 3-(1,4-dimethyl-1H-benzo[d][1,2,3]triazol-5-yl)-3-(3-(((R)-2-ethyl-10-methyl-2,3-dihydro-[1,4]oxazepino[7,6-b]quinolin-4 (5H)-yl)methyl)-4-methylphenyl)-2,2-dimethylpropanoic Acid] | ≥ 50% | E (metabolic rate≥250 pmol/min/mg protein) | 0.0005 to 0.005 µM | 3 to 6 |
| CC[C@@H]1CN(Cc2cc(C(c3ccc4c(nnn4C)c3C)C(C)(C)C(=O)O)ccc2C)Cc2cc3cn[nH]c3cc2O1 (stereo partly drawn) [Example 15-(b), 3-(1,4-dimethyl-1H-benzo[d][1,2,3]triazol-5-yl)-3-(3-(((R)-8-ethyl-1,5,7,8-tetrahydro-6H-[1,4]oxazepino[6,7-f]indazol-6-yl)methyl)-4-methylphenyl)-2,2-dimethylpropanoic Acid] | ≥ 50% | E (metabolic rate≥250 pmol/min/mg protein) | 0.0005 to 0.005 µM | 3 to 6 |

Further lines, with some results ahead:

| inhibition at 0.1 µM [4] | SMILES | Human metabolic rate [1] | EC (1.5-fold NQO1 activity) [2] | fold induction at 30 mg/kg [3] |
| --- | --- | --- | --- | --- |
| ≥ 50% | CC[C@@H]1CN(Cc2cc(C(c3ccc4c(nnn4C)c3C)C(C)(C)C(=O)O)ccc2C)Cc2c(ccc3ccccc23)O1 (stereo partly drawn) [Example 16-(b), 3-(1,4-dimethyl-1H-benzo[d][1,2,3]triazol-5-yl)-3-(3-(((R)-4-ethyl-3,4-dihydronaphtho[1,2-f][1,4]oxazepin-2(1H)-yl)methyl)-4-methylphenyl)-2,2-dimethylpropanoic Acid] | E (metabolic rate≥250 pmol/min/mg protein) | 0.05 to 0.5 µM | ≤ 3 |
| ≥ 50% | CC[C@@H]1CN(Cc2cc(C(c3ccc4c(nnn4C)c3C)C(C)(C)C(=O)O)ccc2C)Cc2c(ccc3cccnc23)O1 (stereo partly drawn) [Example 17-(b), 3-(1,4-dimethyl-1H-benzo[d][1,2,3]triazol-5-yl)-3-(3-(((R)-8-ethyl-8,9-dihydro-[1,4]oxazepino[7,6-h]quinolin-10 (11H)-yl)methyl)-4-methylphenyl)-2,2-dimethylpropanoic Acid] | E (metabolic rate≥250 pmol/min/mg protein) | 0.005 to 0.05 µM | 3 to 6 |
| ≥ 50% | CC[C@@H]1CN(Cc2cc(C(c3ccc4c(nnn4C)c3C)C(C)(C)C(=O)O)ccc2C)Cc2c(ccc3ncccc23)O1 (stereo partly drawn) [Example 18-(b), 3-(1,4-dimethyl-1H-benzo[d][1,2,3]triazol-5-yl)-3-(3-(((R)-4-ethyl-3,4-dihydro-[1,4]oxazepino[6,7-f]quinolin-2(1H)-yl)methyl)-4-methylphenyl)-2,2-dimethylpropanoic Acid] | E (metabolic rate≥250 pmol/min/mg protein) | 0.005 to 0.05 µM | 3 to 6 |
| ≥ 50% | CC[C@@H]1CN(Cc2cc(C(c3ccc4c(nnn4C)c3C)C(C)(C)C(=O)O)ccc2C)Cc2c(cnc3ccccc23)O1 (stereo partly drawn) [Example 19-(b), 3-(1,4-dimethyl-1H-benzo[d][1,2,3]triazol-5-yl)-3-(3-(((R)-4-ethyl-3,4-dihydro-[1,4]oxazepino[7,6-c]quinolin-2(1H)-yl)methyl)-4-methylphenyl)-2,2-dimethylpropanoic Acid] | E (metabolic rate≥250 pmol/min/mg protein) | 0.0005 to 0.005 µM | ≤ 3 |
| ≥ 50% | CC[C@@H]1CN(Cc2cc(C(c3ccc4c(nnn4C)c3C)C(C)(C)C(=O)O)ccc2C)Cc2c(ccc3cnn(C)c23)O1 (stereo partly drawn) [Example 21-(b), 3-(1,4-dimethyl-1H-benzo[d][1,2, 3)triazol-5-yl)-3-(3-(((R)-7-ethyl-1-methyl-1,7,8,10-tetrahydro-9H-(1,4]oxazepino[7,6-g]indazol-9-yl)methyl)-4-methylphenyl)-2,2-dimethylpropanoic Acid] | D (200≤metabolic rate<250 pmol/min/me protein) | 0.05 to 0.5 µM | ≤ 3 |
| ≥ 50% | CC[C@@H]1CN(Cc2cc(C(c3ccc4c(nnn4C)c3C)C(C)(C)C(=O)O)ccc2C)Cc2c(ccc3cn(C)nc23)O1 (stereo partly drawn) [Example 22-(b), 3-(1,4-dimethyl-1H-benzo[d][1,2, 3)triazol-5-yl)-3-(3-(((R)-7-ethyl-2-methyl-2,7,8,10-tetrahydro-9H-(1,4]oxazepino[7,6-g]indazol-9-yl)methyl)-4-methylphenyl)-2,2-dimethylpropanoic Acid] | B (100≤metabolic rate<150 pmol/min/mg protein) | 0.0005 to 0.005 µM | > 6 |
